Test results reported in patent publication US8952150B2, “Prostaglandin transporter inhibitors and uses thereof” (Albert Einstein College of Medicine of Yeshiva University, priority 2009, dated 2015).

Target: rat PGT (Rattus norvegicus (Rat), UniProt Q00910)
Test: [3H]PGE2 uptake inhibition in MDCK cells stably transfected with rat PGT (percent inhibition and IC50)
Type: cell-based
Conditions: for Inh (% of Ctl) 0.5 μM: 0.5 μM compound; for Inh (% of Ctl) 0.5 μM / Inh (% of Ctl) 2.5 μM / Inh (% of Ctl) 5 μM / Inh (% of Ctl) 0.1 μM / Inh (% of Ctl) 1 μM / Inh (% of Ctl) 10 μM: inhibition of [3H]PGE2 uptake; for Inh (% of Ctl) 2.5 μM: 2.5 μM compound; for Inh (% of Ctl) 5 μM: 5 μM compound; for IC50: [3H]PGE2 uptake, MDCK cells stably transfected with rat PGT; for Inh (% of Ctl) 0.1 μM: 0.1 μM compound; for Inh (% of Ctl) 1 μM: 1 μM compound; for Inh (% of Ctl) 10 μM: 10 μM compound
Procedure: MDCK cells stably transfected with rat PGT (Endo et al., 2002) were seeded at 15-20% confluence on 24-well plates. The day on which the cells were seeded was considered day 1. PGE2 uptake experiments were conducted on day 4. All of the PGE2 uptake experiments were conducted at room temperature. On day 4, cells were washed twice with Waymouth buffer (135 mM NaCl, 13 mM H-Hepes, 13 mM Na-Hepes, 2.5 mM CaCl2, 1.2 mM MgCl2, 0.8 mM MgSO4, 5 mM KCl, and 28 mM D-glucose). Then 200 μL of Waymouth buffer containing [^3H]PGE2 (purchased from Perkin Elmer) was added to each well. At the designed time, the uptake of [^3H]PGE2 was stopped by aspiration of uptake buffer; this was followed by immediate washing twice with 500 μL of chilled Waymouth buffer. Cells were then lysed with 100 μL lysis buffer containing 0.25% SDS and 0.05 N NaOH. 1.5 mL of scintillation solution was added to each well, and intracellular [^3H]PGE2 was counted by MicroBeta Counter.
For preliminary testing of the compounds, 20 μL of Waymouth buffer containing the compound was added to each well; this was immediately followed by the addition of 180 μL of Waymouth buffer containing [^3H]PGE2. In each well, the total volume of uptake medium was 200 μL. Organic compounds were first dissolved in EtOH and then diluted in Waymouth buffer. The percent inhibition of [^3H]PGE2 uptake by compounds was calculated as [(uptakevehicle−uptakeinhibitor)÷(uptakevehicle)]×100.
IC50 was calculated by fitting an equation of y=m1−m1*(m0/(m2+m0)).

Row | Inh (% of Ctl) 0.5 μM | Inh (% of Ctl) 2.5 μM | Inh (% of Ctl) 5 μM | IC50 [nM] | Inh (% of Ctl) 0.1 μM | Inh (% of Ctl) 1 μM | Inh (% of Ctl) 10 μM | SMILES
1 | 4.1 % of Ctl | 10.4 % of Ctl | 42.0 % of Ctl | 609 |  |  |  | O=C(NCCOCCOCCNc1nc(Nc2ccc(O)cc2)nc(Nc2ccc(C(=O)NCc3ccccc3)cc2)n1)c1ccccc1 [compound 83]
2 | 59.4 % of Ctl |  |  |  | 36.4 % of Ctl |  |  | O=C(NCCOCCOCCNc1nc(Nc2ccccc2)nc(Nc2ccc(C(=O)NCc3ccccc3)cc2)n1)c1ccccc1 [compound 116]
3 |  |  |  |  |  | 12.2 % of Ctl | 69.2 % of Ctl | O=C(NCCOCCOCCNc1nc(Nc2ccccc2)nc(Nc2ccc(O)cc2)n1)c1ccc(Br)cc1 [compound 31]
4 | 5.8 % of Ctl |  |  |  | 3.4 % of Ctl | 10.8 % of Ctl |  | COC(=O)c1cc(Nc2nc(NCCOCCOCCNC(=O)c3ccccc3)nc(Nc3ccc(C(=O)NCc4ccc(F)cc4)cc3)n2)ccc1O [compound 144]
5 | 1.3 % of Ctl |  | 18.8 % of Ctl |  |  |  |  | CN(C)c1nc(NCCOCCOCCNC(=O)c2ccccc2)nc(Nc2ccc(O)cc2)n1 [compound 9]
6 | 0.7 % of Ctl |  |  |  |  | 8.4 % of Ctl |  | O=C(NCCOCCOCCNc1nc(NCCOCCOCCNC(=O)c2ccccc2)nc(Nc2ccc(O)cc2)n1)c1ccccc1 [compound 151]
7 | 36.6 % of Ctl |  |  |  | 12.0 % of Ctl |  |  | CN(c1ccc(O)cc1)c1nc(NCCOCCOCCNC(=O)c2ccccc2)nc(Nc2ccc(C(=O)NCc3ccccc3)cc2)n1 [compound 123]
8 | 15.5 % of Ctl | 24.5 % of Ctl | 83.2 % of Ctl |  |  |  |  | O=C(NCCOCCOCCNc1nc(Nc2ccc(O)cc2)nc(Nc2cccc(C(=O)NCc3ccccc3)c2)n1)c1ccccc1 [compound 78]
9 | 13.4 % of Ctl |  | 76.1 % of Ctl |  |  |  |  | O=C(NCCOCCOCCNc1nc(Nc2ccc(O)cc2)nc(Nc2ccc(C(=O)NCc3cccnc3)cc2)n1)c1ccccc1 [compound 67]
10 | 21.1 % of Ctl |  | 48.9 % of Ctl |  |  |  |  | O=C(NCCOCCO)c1ccc(Nc2nc(NCCOCCOCCNC(=O)c3ccccc3)nc(Nc3ccc(O)cc3)n2)cc1 [compound 18]
11 |  |  |  | 2460 |  | 36.8 % of Ctl | 75.8 % of Ctl | O=C(NCCOCCNc1nc(Nc2ccccc2)nc(Nc2ccc(O)cc2)n1)c1ccccc1 [compound 59]
12 | 20.1 % of Ctl |  |  |  | 8.4 % of Ctl | 39.2 % of Ctl |  | O=C(NCCOCCOCCNc1nc(Nc2ccc(C(=O)NCc3ccc(F)cc3)cc2)nc(Nc2ccc3[nH]cnc3c2)n1)c1ccccc1 [compound 142]
13 | 71.8 % of Ctl | 83.5 % of Ctl | 90.6 % of Ctl | 710 | 55.1 % of Ctl |  |  | O=C(NCCOCCOCCNc1nc(Nc2ccc(O)cc2)nc(Nc2ccc(C(=O)NCc3cccc(Cl)c3)cc2)n1)c1ccccc1 [compound 87]
14 | 22.5 % of Ctl |  |  |  | 17.8 % of Ctl | 34.5 % of Ctl |  | O=C(NCc1ccccc1)c1ccc(Nc2nc(NCCOCCNS(=O)(=O)c3ccccc3)nc(Nc3ccc(O)cc3)n2)cc1 [compound 138]
15 | 56.3 % of Ctl | 80.7 % of Ctl | 91.3 % of Ctl |  | 65.2 % of Ctl |  |  | Cc1cccc(CNC(=O)c2ccc(Nc3nc(NCCOCCOCCNC(=O)c4ccccc4)nc(Nc4ccc(O)cc4)n3)cc2)c1 [compound 107]
16 | 12.9 % of Ctl |  | 27.7 % of Ctl |  |  |  |  | Nc1ccc(Nc2nc(NCCOCCOCCNC(=O)c3ccccc3)nc(Nc3ccc(O)cc3)n2)cc1 [compound 25]
17 |  |  | 83.4 % of Ctl | 4040 |  | 65.2 % of Ctl | 86.4 % of Ctl | O=C(NCCOCCOCCNc1nc(Nc2ccccc2)nc(Nc2ccc3cn[nH]c3c2)n1)c1ccccc1 [compound 53]
18 | 3.6 % of Ctl |  | 11.7 % of Ctl |  |  |  |  | O=C(NCCOCCOCCNc1nc(NCCO)nc(Nc2ccc(OCc3ccccc3)cc2)n1)c1ccccc1 [compound 6]
19 | 62.4 % of Ctl |  | 88.1 % of Ctl | 42.7 |  |  | 95.5 % of Ctl | O=C(NCCOCCOCCNc1nc(Nc2ccc(O)cc2)nc(Nc2ccc(C(=O)NCc3ccccc3)cc2)n1)c1ccccc1 [compound 22]
20 |  |  |  |  |  | 17.4 % of Ctl | 29.8 % of Ctl | O=C(O)COCCOCCNc1nc(Nc2ccccc2)nc(Nc2ccc(O)cc2)n1 [compound 51]
21 | 0.4 % of Ctl | 16.2 % of Ctl | 80.1 % of Ctl |  |  |  |  | COc1cc(Nc2nc(NCCOCCOCCNC(=O)c3ccccc3)nc(Nc3ccc(O)cc3)n2)ccc1C(=O)NCc1ccccc1 [compound 81]
22 | 11.8 % of Ctl |  | 44.8 % of Ctl | 9770 |  |  |  | CC(C)(C)NC(=O)c1ccc(Nc2nc(NCCOCCOCCNC(=O)c3ccccc3)nc(Nc3ccc(O)cc3)n2)cc1 [compound 16]
23 | 22.0 % of Ctl |  | 55.6 % of Ctl | 6570 |  |  |  | COC(=O)c1ccc(Nc2nc(NCCOCCOCCNC(=O)c3ccccc3)nc(Nc3ccc(O)cc3)n2)cc1 [compound 17]
24 |  |  |  | 1300 |  | 34.8 % of Ctl | 84.1 % of Ctl | COC(=O)CCCCCCNC(=O)c1ccc(Nc2nc(NCCOCCOCCNC(=O)c3ccccc3)nc(Nc3ccc(O)cc3)n2)cc1 [compound 43]
25 | 33.8 % of Ctl | 76.5 % of Ctl | 86.0 % of Ctl |  |  |  |  | O=C(NCCOCCOCCNc1nc(Nc2ccc(O)cc2)nc(Nc2ccc(C(=O)NCc3cccc4ccccc34)cc2)n1)c1ccccc1 [compound 89]
26 | 14.4 % of Ctl |  | 38.4 % of Ctl |  |  |  |  | COc1ccc(Nc2nc(NCCOCCOCCNC(=O)c3ccccc3)nc(Nc3ccc(O)cc3)n2)cc1 [compound 23]
27 |  |  | 23.4 % of Ctl |  |  | 1.9 % of Ctl | 50.4 % of Ctl | O=C(NCCOCCOCCNc1nc(Nc2ccccc2)nc(Nc2ccc3[nH]nnc3c2)n1)c1ccccc1 [compound 95]
28 | 28.2 % of Ctl |  | 53.8 % of Ctl |  |  |  |  | O=C(NCCOCCOCCNc1nc(Nc2ccc(O)cc2)nc(NC2CCCCC2)n1)c1ccccc1 [compound 27]
29 | 30.7 % of Ctl |  |  |  | 16.3 % of Ctl | 39.0 % of Ctl |  | O=C(NCCOCCNc1nc(Nc2ccc(O)cc2)nc(Nc2ccc(C(=O)NCc3ccccc3)cc2)n1)Nc1ccccc1 [compound 139]
30 | 70.7 % of Ctl | 81.4 % of Ctl | 86.4 % of Ctl | 870 | 50.0 % of Ctl |  |  | O=C(NCCOCCOCCNc1nc(Nc2ccc(O)cc2)nc(Nc2ccc(C(=O)NCc3ccccc3-c3ccccc3)cc2)n1)c1ccccc1 [compound 86]
